Among the data in PubChem BioAssay AID179 (DTP/NCI, 2004) are EC50, IC50 and outcome values, retold here.

Active and inactive are the calls of the source.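 Rule for the calls: active = compounds giving half or more protection of infected cells from virus-caused growth loss, again on retest; inactive = the rest.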

The EC50 is the concentration that produces a half-maximal response. In general, IC50 refers to the concentration at which inhibition is half-maximal.

In the assay the test system is CEM cells HIV-1 protection, formazan growth assay. The assay can be described thus: NCI AIDS Antiviral Assay. The following applies: for IC50: measured here: growth of uninfected CEM cells. Put shortly: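 CEM (human) cells, HIV-1 infected vs uninfected, 5-point dosing, formazan growth read-out. Retest threshold 50% protection.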

Turning to `C/C=C/c1cc2c(c(=O)o1)C(=O)[C@@H](O)[C@H](C)O2`, the EC50 is more than 200 µM and the IC50 worked out at 3.72 µM.
In the same order, the values of `CCOC(=O)NN(C(=O)OCC)C(=C(C1=CCCCC1)N1CCOCC1)N(NC(=O)OCC)C(=O)OCC` are more than 200 µM and more than 200 µM.
For `COc1cccc(/C=C2\S/C(=N/Nc3nc(C)c(C)s3)NC2=O)c1O`, the EC50 was more than 200 µM and the IC50 was found to be 129 µM.
Take `O=C(CCCN1CCC(n2c(=O)[nH]c3ccccc32)CC1)c1ccc(F)cc1`: the EC50 was more than 200 µM and the IC50 was 89.1 µM.
For the molecule `CCOc1cc2c(cc1OC)c[n+](C)c1c3cc(OC)c(OC)cc3ccc21`, the result was inactive.
As for `CC(C)C(/C=C/c1ccc(Br)cc1)=N\NC(N)=O`, the EC50 is more than 32.4 µM and the IC50 is more than 32.4 µM.
`C=CC(C)C1(CCCOCc2ccccc2)C(=S)N2CCC3(CC24CCCC14)OCCO3` (centres undefined): the outcome was inactive.
Turning to `COC(=O)C(=O)C(C(=O)C(=O)Nc1ccccc1C(C)=O)c1nc2ccc(C(=O)c3ccccc3)cc2[nH]c1=O` (centres undefined), the EC50 is more than 93.3 µM and the IC50 stood at 55 µM.
`NC(N)=Nc1nn[nH]n1`: the EC50 is more than 200 µM and the IC50 was more than 200 µM.
On to `CC1CC2CC(=O)CC3(C1)C2CCCN3CCCO` (centres undefined), for which the result was inactive.
On to `COc1cccc(NC(=O)CC(=O)N2N=C(C)C(N=Nc3ccc(S(=O)(=O)c4ccc(N=NC5C(=O)N(C(=O)CC(=O)Nc6cccc(OC)c6)N=C5C)cc4)cc3)C2=O)c1` (centres undefined), for which the EC50 was 178 µM and the IC50 is more than 200 µM.
The matching figures for `Cc1cc2c(C)nn(Cc3ccccc3Cl)c2c(C#N)c1C`: more than 23.4 µM and more than 23.4 µM.
As to `COC1OC(CO)C(N=C(C)C)C1O` (centres undefined), the EC50 is more than 200 µM and the IC50 is more than 200 µM.
As for `C=C(CN(C)C)C(=O)c1ccc(Oc2ccccc2)cc1`, the EC50 is more than 200 µM and the IC50 worked out at 3.47 µM.
For `Nc1c(O)c(S(=O)(=O)O)c(O)c2c1C(=O)c1ccccc1C2=O`, the EC50 is 200 µM and the IC50 came to 234 µM.
Regarding `CC(C)C1=CC2=CC(=O)C3C(C)(C)CCCC3(C)C2=C(O)C1=O` (centres undefined), the EC50 was more than 20 µM and the 50% inhibitory concentration (IC50) is 4.07 µM.
For `O=C(O)C(Cc1ccc2c(c1)CCC2)(Cc1ccc2c(c1)CCC2)C(=O)O`, the EC50 is more than 200 µM and the IC50 was more than 200 µM.
On to `S=C(S)N1CCNCC1`, for which the outcome was inactive.
Take `Cc1c2c(C(N)=O)nccc2c(C)c2c1c1ccccc1n2Cc1ccccc1`: the result was inactive.
Turning to `Cc1cccc(C)c1NC(=S)NNC(=O)NNC(=S)Nc1c(C)cccc1C`, the EC50 was more than 200 µM and the IC50 is more than 200 µM.
`N#Cc1c(-c2ccccc2)cn(C(=O)c2ccccc2)c1N`: the EC50 is more than 200 µM and the IC50 was 191 µM.
Take `CS(=O)(=O)N1CC(CI)c2ccc(O)cc21` (centres undefined): the EC50 was more than 200 µM and the IC50 came to 2.4 µM.
As for `O=[N+]([O-])c1cc(Br)cc2cc(Cl)cnc12`, the outcome was inactive.
In the case of `S=C(Nc1ccc2c(c1)oc1ccccc12)c1cccnc1`, the EC50 was 67.6 µM and the IC50 was more than 200 µM.
Consider `CCCCC(C(=O)C(=O)Nc1ccccc1CC)C(=O)C(C)C` (centres undefined), for which the result was inactive.
Consider `C=C1C(=O)OC2(C)CCC1CC1OC1(C)CCC=C(C)CCC2O` (centres undefined), for which the EC50 is more than 389 µM and the IC50 was 32.4 µM.
In the same order, the values of `CCOC(=O)c1ccc(N=C2Sc3nc4ccccc4n3C2=Nc2ccc(C(=O)OCC)cc2)cc1` are more than 50.1 µM and more than 50.1 µM.
The matching figures for `CC(=O)NNc1ncc(C(=O)/C=C/c2ccccc2C)s1`: more than 22.4 µM and more than 22.4 µM.
Turning to `CNc1ccc(/C=C/c2ccnc3ccccc23)cc1`, the EC50 was more than 200 µM and the IC50 amounted to 6.31 µM.
With `COC(CN(C(C)=O)C1CCC2(SCCS2)c2[nH]c3ccccc3c21)OC` (centres undefined), the EC50 is more than 200 µM and the IC50 turned out to be 123 µM.
Take `Cc1c(N=Nc2ccccc2)c(C)n(C2OC(CO)C(O)C(O)C2O)c(=S)c1C#N` (centres undefined): the EC50 was more than 200 µM and the IC50 was 22.9 µM.
As to `CN(C)CCC(O)(Cc1ccccc1)c1ccco1` (centres undefined), the EC50 is more than 200 µM and the IC50 was determined as 34.7 µM.
Take `CO[C@H](/C(C)=C/C=C/C(C)=C/c1coc(C)n1)[C@H](C)[C@H]1C[C@@H](O)[C@@]2(C)O[C@H]2/C=C/[C@@H](C)[C@@H]2C[C@@H](CC(=O)O2)C[C@H]2O[C@@H]2C(=O)O1`: the EC50 was more than 0.219 µM and the IC50 is 0.00017 µM.
As to `CC1(C)C(=O)C(=Cc2ccco2)C1=O`, the EC50 was more than 100 µM and the IC50 was more than 100 µM.
As to `COC(=O)C(=O)C(C(=O)OC)C(=O)C(=O)Nc1c(C)cccc1C` (centres undefined), the EC50 is more than 204 µM and the IC50 was more than 204 µM.
With `CO/N=C1\CC(NC(=O)C(F)(F)F)c2ccsc21` (centres undefined), the EC50 was more than 200 µM and the IC50 is more than 200 µM.
On to `Cc1ccc(-c2n[nH]c(=O)n2/N=C\c2ccccc2)cc1`, for which the EC50 is more than 200 µM and the IC50 stood at 110 µM.
As to `CNc1ccc(Cl)cc1S(=O)(=O)c1ccc([N+](=O)[O-])cc1`, the EC50 was more than 200 µM and the IC50 was more than 200 µM.
As for `COc1ccc(-c2cc(-c3ccco3)c(C#N)c(=O)n2C2OC(OC(=O)c3ccccc3)C(OC(=O)c3ccccc3)C2OC(=O)c2ccccc2)cc1` (centres undefined), the EC50 was more than 7.24 µM and the IC50 was more than 7.24 µM.
`COc1c2c(cc3c1OCO3)C13C=CC(OC)CC1N(CC3)C2` (centres undefined): the EC50 is more than 200 µM and the IC50 is more than 200 µM.
`O=c1cc(-c2ccc3c(c2)OCO3)oc2c(Cl)cc(Cl)cc12`: the EC50 was more than 100 µM and the IC50 was determined as 57.5 µM.
The matching figures for `CC1(C)OCC(COC(=O)C=[N+]=[N-])O1` (centres undefined): more than 200 µM and more than 200 µM.
As to `CC(C)N1CC(=O)N2CSCC2C1=O` (centres undefined), the EC50 was more than 200 µM and the IC50 is more than 200 µM.
For `COc1cc(-c2ccc(N=Nc3c(S(=O)(=O)O)cc4cc(S(=O)(=O)O)cc(N)c4c3O)c(OC)c2)ccc1N=Nc1c(S(=O)(=O)O)cc2cc(S(=O)(=O)O)cc(N)c2c1O`, the outcome was active.
For `CC(=O)c1c(-c2ccc(O)cc2)oc2cc(O)ccc12`, the EC50 was more than 347 µM and the IC50 turned out to be 63.1 µM.
On to `CCOC(=O)c1oc2cc3c(c4c2c1-c1ccccc1N4C)C=CC(C)(C)O3`, for which the EC50 was more than 200 µM and the IC50 is 120 µM.
On to `O=C(c1ccccc1)n1cc(-c2ccccc2)c2c(=O)[nH]cnc21`, for which the EC50 was more than 200 µM and the IC50 is more than 100 µM.
The matching figures for `Cc1ccc2nccc(/C=C/c3ccc(N(C)C)cc3)c2c1`: more than 13.2 µM and 2.45 µM.
Consider `CNC(=O)CNC(=O)CCC(=O)N(C)C`, for which the EC50 is more than 200 µM and the IC50 was more than 200 µM.
As for `CC(=O)[O-].[O-]c1c(Cl)cc(Cl)cc1/C=N/Nc1ccccn1.[Zn+2]`, the outcome was inactive.
For `Cn1c2ccccc2n2c(=O)c3cc([N+](=O)[O-])ccc3c(C#N)c12`, the EC50 is more than 100 µM and the IC50 was more than 100 µM.
As to `Nc1nc(C[P+](c2ccccc2)(c2ccccc2)c2ccccc2)c(CCCCc2ccccc2)c(=O)[nH]1`, the EC50 is more than 200 µM and the IC50 came out at 33.1 µM.
`CC(/C=C/c1ccccc1)=N/NS(=O)(=O)c1ccc([N+](=O)[O-])cc1`: the EC50 is more than 15.1 µM and the IC50 was more than 15.1 µM.
As for `CC(=O)NNc1nc(C)c(C(/C=C/c2ccc3c(c2)OCO3)=N/Nc2ccccc2)s1`, the EC50 is more than 56.2 µM and the IC50 is more than 56.2 µM.
`CC1(C)CC(=O)C(/C=N/c2nc(-c3ccccc3)cs2)=C(O)C1`: the EC50 is more than 200 µM and the IC50 was more than 200 µM.
For the molecule `CCC1(c2ccc3ccccc3c2)Oc2ccccc2-n2cccc2C1=O` (centres undefined), the EC50 was 1.17 µM and the IC50 turned out to be 91.2 µM.
For the molecule `NC(N)=NC(N)=Nc1ccc(Sc2ccc(N=C(N)N=C(N)N)cc2)cc1`, the EC50 is more than 200 µM.
For the molecule `CCN(C(=O)N[C@H](C(=O)N[C@@H](C)C(=O)OC)C(C)C)c1ccccc1`, the EC50 was more than 200 µM and the IC50 was 35.5 µM.
In the case of `COc1ccc(/C=C/c2ccc3ccccc3n2)c(OC)c1`, the EC50 is more than 200 µM and the IC50 amounted to 12.3 µM.
In the case of `Cc1ccc(S(=O)(=O)SCCN)cc1`, the EC50 was more than 115 µM and the IC50 is more than 100 µM.
Regarding `O=C(Cc1nc2ccccc2s1)C(=O)Nc1ccc(Cl)cc1`, the result was inactive.
Consider `O=S(=O)(N=[Se](=O)(c1ccccc1)c1ccccc1)c1ccccc1`, for which the EC50 is more than 200 µM and the IC50 is 115 µM.
For `COc1ccccc1N1CCN(CCc2c[nH]c3cc4c(cc23)OCO4)CC1`, the EC50 is more than 132 µM and the IC50 was found to be 7.41 µM.
The matching figures for `CC1=CC(=O)N2C(OC[C@@H]2c2ccccc2)O1` (some centres undefined): more than 562 µM and more than 562 µM.
Regarding `CC[C@@H]1C2CC3C4N(C)c5ccccc5[C@]45C[C@@H](C2C5O)N3C1O` (some centres undefined), the result was inactive.
For the molecule `CC(=O)Nc1sccc1S(=O)(=O)c1ccsc1NC(C)=O`, the EC50 is more than 200 µM and the IC50 was 5.62 µM.
For the molecule `Cc1nn(C)c(=O)[nH]c1=O`, the EC50 was more than 1780 µM and the IC50 was more than 1780 µM.
`Cn1cc(C2(C)CC(C)(C)c3c2n(C)c2ccccc32)c2ccccc21` (centres undefined): the EC50 was more than 55 µM and the IC50 was found to be 47.9 µM.
Take `CCCCCCCCSC(=O)NCCCC`: the result was inactive.
`O=C(NC1CCCCC1)/C(=C\c1ccccc1)NC(=O)c1ccccc1`: the EC50 is more than 200 µM and the IC50 was more than 200 µM.
Turning to `C[C@]12CC[C@@H]3c4cc(OCC(F)(F)F)c(O)cc4/C(=N/O)C[C@H]3[C@@H]1CC[C@@H]2O`, the EC50 is more than 0.2 µM and the half-inhibitory concentration (IC50) is 0.0933 µM.
Consider `Cc1cn([C@@H]2C[C@H]2CO)c(=O)[nH]c1=O`, for which the result was inactive.
As for `CCn1c(O)c(C=Nc2ccccc2)s/c1=N/Nc1nc(C)cs1`, the EC50 is more than 200 µM and the IC50 was determined as 174 µM.
Take `O=C1NC(=O)C(=Cc2ccc3c(c2)OCO3)C(=O)N1`: the EC50 was more than 14.5 µM and the IC50 is more than 14.5 µM.
